Results from article PMC4406947, “CALM Regulates Clathrin-Coated Vesicle Size and Maturation by Directly Sensing and Driving Membrane Curvature” (Developmental Cell, 2015).

Columns and labels:
CALM ANTH (CALM ANTH-WT) = molecular target: T1, CALM ANTH (CALM ANTH-WT); assay: liposome-based SPR (BIAcore […]); type: binding, Homo sapiens; conditions: PtdIns4,5P2-containing liposomes, not free lipid; 170 mM salt
T1 construct: gene PICALM; recombinant N-terminal ANTH domain including AH0, first 289 residues; construct details in supplement; clone could be rat Picalm (earlier ANTH constructs of this group)

CALM ANTH(ΔH0) = molecular target: T2, CALM ANTH(ΔH0) (Homo sapiens, UniProt Q13492); assay: liposome-based SPR (BIAcore […]); type: binding; conditions: PtdIns4,5P2-containing liposomes, not free lipid; 170 mM salt
T2 construct: gene PICALM; recombinant ANTH domain lacking the N-terminal amphipathic helix AH0 (residues 1-18); construct details in supplement; clone could be rat Picalm
T2 sequence (Q13492 19-289): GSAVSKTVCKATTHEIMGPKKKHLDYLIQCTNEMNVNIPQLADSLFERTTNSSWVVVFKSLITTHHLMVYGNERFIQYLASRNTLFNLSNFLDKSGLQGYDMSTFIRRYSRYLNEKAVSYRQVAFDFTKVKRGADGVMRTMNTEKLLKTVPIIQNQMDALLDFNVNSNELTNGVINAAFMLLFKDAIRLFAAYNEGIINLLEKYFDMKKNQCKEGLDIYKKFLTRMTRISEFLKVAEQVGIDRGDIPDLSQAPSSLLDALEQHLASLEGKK

- Kd (CALM ANTH (CALM ANTH-WT)): 1.5 µM
- Kd (CALM ANTH(ΔH0)): 11.5 ± 1.1 µM
Substance: PtdIns4,5P2
